These results are taken from patent US20240246977A1, “DEGRADATION OF BRUTON'S TYROSINE KINASE (BTK) BY CONJUGATION OF BTK INHIBITORS WITH E3 LIGASE LIGAND AND METHOD OF USE” (BeiGene Switzerland GmbH, priority 2021, published 2024).

A word on the DC50: it is the concentration at which degradation of the target reaches its halfway point. Low readings indicate a more potent degrader, high ones a less potent degrader.

One assay has as its system HEK-293 cells. Briefly: HEK-293 cytotoxicity detection (CellTiter-Glo). The class given is cell-based. The conditions noted are these: Homo sapiens, 72 h, 72 h incubation, CellTiter-Glo luminescence, read-out: HEK293. The gist of the method: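 HEK-293 cells exposed 72 h to 8 compounds doses (4-fold dilutions, top stock 5 mM at 500×) in 0.2% DMSO. Viability by CellTiter-Glo luminescence; inhibition normalised to DMSO high control and low control, IC50 from four-parameter curve fit.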

The next assay concerns the target BTK (Homo sapiens, UniProt Q06187). Put plainly: BTK cell degradation in TMD-8 cells, HTRF assay. The conditions noted are these: 6 h treatment, IC50 (DC50) of BTK degradation. On the set-up: endogenous in cells; host or cells: TMD-8 cells. The class given is cell-based. A digest of the protocol:
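TMD-8 cells treated 6 h with 8-dose series (6-fold dilutions, 0.2% DMSO final), then lysed and BTK quantified by HTRF (337/665/620 nm) after overnight antibody incubation at room temperature. Degradation normalized to DMSO high and low controls; DC50 and Dmax from four-parameter fit.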
For orientation: Time-resolved FRET reads energy transfer from a long-lived donor to a nearby acceptor.

pIC50: −log10 of the molar value.

BTK, sequence (Q06187 whole entry): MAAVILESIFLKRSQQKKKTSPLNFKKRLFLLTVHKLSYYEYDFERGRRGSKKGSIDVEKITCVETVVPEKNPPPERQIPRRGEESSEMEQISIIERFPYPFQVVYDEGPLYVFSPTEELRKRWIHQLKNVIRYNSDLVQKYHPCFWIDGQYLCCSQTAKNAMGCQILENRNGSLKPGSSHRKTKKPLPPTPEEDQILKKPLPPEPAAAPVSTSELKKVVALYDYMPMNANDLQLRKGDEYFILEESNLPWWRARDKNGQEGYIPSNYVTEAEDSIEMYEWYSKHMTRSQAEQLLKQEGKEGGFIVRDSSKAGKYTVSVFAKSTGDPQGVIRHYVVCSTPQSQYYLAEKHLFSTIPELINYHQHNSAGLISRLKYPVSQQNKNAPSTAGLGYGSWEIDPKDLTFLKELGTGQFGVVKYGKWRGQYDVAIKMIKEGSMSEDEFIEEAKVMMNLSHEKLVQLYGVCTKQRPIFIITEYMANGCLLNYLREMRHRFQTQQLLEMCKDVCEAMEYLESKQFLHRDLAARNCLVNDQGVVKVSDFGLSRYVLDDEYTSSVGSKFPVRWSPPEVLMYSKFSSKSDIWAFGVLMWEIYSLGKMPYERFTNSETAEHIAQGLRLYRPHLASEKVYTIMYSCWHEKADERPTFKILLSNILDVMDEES

In the case of `Cc1c(C(=O)Nc2cn(C)cn2)ccc(-c2nn3c(c2C(N)=O)Nc2ccc(N4CCN(C(=O)C5CCN(c6ccc(N7CCC(=O)NC7=O)cc6)CC5)CC4)cc2CC3)c1F` [Example B91, 7-(4-(1-(4-(2,4-dioxotetrahydropyrimidin-1(2H)-yl)phenyl)piperidine-4-carbonyl)piperazin-1-yl)-2-(2-fluoro-3-methyl-4-((1-methyl-1H-imidazol-4-yl)carbamoyl)phenyl)-9,10-dihydro-4H-benzo[d]pyrazolo[1,5-a][1,3]diazepine-3-arboxamide], in the assay with HEK-293 cells, the pIC50 was less than 5.00. Also, on BTK, it took 1.36 nM to reach half-maximal degradation (DC50).
Taken in the same sequence, the figures for `Cc1c(C(=O)Nc2cn(C)cn2)ccc(-c2nn3c(c2C(N)=O)Nc2ccc(N4CCN(C[C@H]5CCN(c6ccc(N7CCC(=O)NC7=O)cc6)C5)CC4)cc2CC3)c1F` [Example B92, (R)-7-(4-((1-(4-(2,4-dioxotetrahydropyrimidin-1(2H)-yl)phenyl)pyrrolidin-3-yl)methyl)piperazin-1-yl)-2-(2-fluoro-3-methyl-4-((1-methyl-1H-imidazol-4-yl)carbamoyl)phenyl)-9,10-dihydro-4H-benzo[d]pyrazolo[1,5-a][1,3]diazepine-3-carboxamide] were less than 5.00 and 1.86 nM.
On to `Cc1c(C(=O)Nc2ncnn2C)ccc(-c2nn3c(c2C(N)=O)Nc2ccc(N4CCN(CC5CCN(c6ccc(N7CCC(=O)NC7=O)cc6)CC5)CC4)cc2CC3)c1F` [Example B93, 7-(4-((1-(4-(2,4-dioxotetrahydropyrimidin-1(2H)-yl)phenyl)piperidin-4-yl)methyl)piperazin-1-yl)-2-(2-fluoro-3-methyl-4-((1-methyl-1H-1,2,4-triazol-5-yl)carbamoyl)phenyl)-9,10-dihydro-4H-benzo[d]pyrazolo[1,5-a][1,3]diazepine-3-carboxamide], for which the pIC50 in the assay with HEK-293 cells is less than 5.00. In addition, the DC50 on BTK came to 3.77 nM.
The like results for `Cc1c(C(=O)Nc2cscn2)ccc(-c2nn3c(c2C(N)=O)Nc2ccc(N4CCN(CC5CCN(c6ccc(N7CCC(=O)NC7=O)cc6)CC5)CC4)cc2CC3)c1F` [Example B94, 7-(4-((1-(4-(2,4-dioxotetrahydropyrimidin-1(2H)-yl)phenyl)piperidin-4-yl)methyl)piperazin-1-yl)-2-(2-fluoro-3-methyl-4-(thiazol-4-ylcarbamoyl)phenyl)-9,10-dihydro-4H-benzo[d]pyrazolo[1,5-a][1,3]diazepine-3-carboxamide] were, in that order, less than 5.00 and 0.378 nM.
The like results for `Cc1c(C(=O)Nc2cscn2)ccc(-c2nn3c(c2C(N)=O)Nc2ccc(N4CCN(CCc5cccc6c5oc(=O)n6C5CCC(=O)NC5=O)CC4)cc2CC3)c1F` (centres unmarked) [Example B96, 7-(4-(2-(3-(2,6-dioxopiperidin-3-yl)-2-oxo-2,3-dihydrobenzo[d]oxazol-7-yl)ethyl)piperazin-1-yl)-2-(2-fluoro-3-methyl-4-(thiazol-4-ylcarbamoyl)phenyl)-9,10-dihydro-4H-benzo[d]pyrazolo[1,5-a][1,3]diazepine-3-carboxamide] were, in that order, 6.94 and 0.586 nM.
For `Cc1c(C(=O)Nc2cscn2)ccc(-c2nn3c(c2C(N)=O)Nc2ccc(N4CCN(CC5CN(c6ccc(N7CCC(=O)NC7=O)cc6)C5)CC4)cc2CC3)c1F` [Example B97, 7-(4-((1-(4-(2,4-dioxotetrahydropyrimidin-1(2H)-yl)phenyl)azetidin-3-yl)methyl)piperazin-1-yl)-2-(2-fluoro-3-methyl-4-(thiazol-4-ylcarbamoyl)phenyl)-9,10-dihydro-4H-benzo[d]pyrazolo[1,5-a][1,3]diazepine-3-carboxamide], the pIC50 in the assay on HEK-293 cells is less than 5.00. For the same molecule, the DC50 at BTK came to 2.11 nM.
The like results for `Cc1c(C(=O)Nc2cscn2)ccc(-c2nn3c(c2C(N)=O)Nc2ccc(N4CCN(CC5CCN(c6ccc(CN7CCC(=O)NC7=O)cc6)CC5)CC4)cc2CC3)c1F` [Example B98, 7-(4-((1-(4-((2,4-dioxotetrahydropyrimidin-1(2H)-yl)methyl)phenyl)piperidin-4-yl)methyl)piperazin-1-yl)-2-(2-fluoro-3-methyl-4-(thiazol-4-ylcarbamoyl)phenyl)-9,10-dihydro-4H-benzo[d]pyrazolo[1,5-a][1,3]diazepine-3-carboxamide] were, in that order, less than 5.00 and 1.1 nM.
The like results for `Cc1c(C(=O)Nc2cscn2)ccc(-c2nn3c(c2C(N)=O)Nc2ccc(N4CCN(CC5CCN(c6cccc(CN7CCC(=O)NC7=O)c6)CC5)CC4)cc2CC3)c1F` [Example B99, 7-(4-((1-(3-((2,4-dioxotetrahydropyrimidin-1(2H)-yl)methyl)phenyl)piperidin-4-yl)methyl)piperazin-1-yl)-2-(2-fluoro-3-methyl-4-(thiazol-4-ylcarbamoyl)phenyl)-9,10-dihydro-4H-benzo[d]pyrazolo[1,5-a][1,3]diazepine-3-carboxamide] were, in that order, less than 5.00 and 2.72 nM.
Taken in the same sequence, the figures for `Cc1c(C(=O)Nc2cscn2)ccc(-c2nn3c(c2C(N)=O)Nc2ccc(N4CCN(C5CC(c6ccc(N[C@@H]7CCC(=O)NC7=O)cc6)C5)CC4)cc2CC3)c1F` (stereo partly drawn) [Example B100, (R)-7-(4-(3-(4-((2,6-dioxopiperidin-3-yl)amino)phenyl)cyclobutyl)piperazin-1-yl)-2-(2-fluoro-3-methyl-4-(thiazol-4-ylcarbamoyl)phenyl)-9,10-dihydro-4H-benzo[d]pyrazolo[1,5-a][1,3]diazepine-3-carboxamide] were 7.47 and 2.14 nM.
With `Cc1c(C(=O)Nc2cscn2)ccc(-c2nn3c(c2C(N)=O)Nc2ccc(N4CCN(C5CC(c6ccc(N[C@H]7CCC(=O)NC7=O)cc6)C5)CC4)cc2CC3)c1F` (stereo partly drawn) [Example B101, (S)-7-(4-(3-(4-((2,6-dioxopiperidin-3-yl)amino)phenyl)cyclobutyl)piperazin-1-yl)-2-(2-fluoro-3-methyl-4-(thiazol-4-ylcarbamoyl)phenyl)-9,10-dihydro-4H-benzo[d]pyrazolo[1,5-a][1,3]diazepine-3-carboxamide], the pIC50 with HEK-293 cells is 7.49. Further, at BTK, it took 2.42 nM to reach half-maximal degradation (DC50).
Regarding `Cc1c(C(=O)Nc2cscn2)ccc(-c2nn3c(c2C(N)=O)Nc2ccc(N4CCN(C(=O)C5CCN(c6ccc(N7CCC(=O)NC7=O)cc6)CC5)CC4)cc2CC3)c1F` [Example B102, 7-(4-(1-(4-(2,4-dioxotetrahydropyrimidin-1(2H)-yl)phenyl)piperidine-4-carbonyl)piperazin-1-yl)-2-(2-fluoro-3-methyl-4-(thiazol-4-ylcarbamoyl)phenyl)-9,10-dihydro-4H-benzo[d]pyrazolo[1,5-a][1,3]diazepine-3-carboxamide], the pIC50 in the assay on HEK-293 cells is less than 5.00. For the same molecule, the DC50 at BTK turned out to be 1.1 nM.
With `Cc1c(C(=O)Nc2cscn2)ccc(-c2nn3c(c2C(N)=O)Nc2ccc(N4CCN(C[C@H]5CCN(c6ccc(N7CCC(=O)NC7=O)cc6)C5)CC4)cc2CC3)c1F` [Example B103, (R)-7-(4-((1-(4-(2,4-dioxotetrahydropyrimidin-1(2H)-yl)phenyl)pyrrolidin-3-yl)methyl)piperazin-1-yl)-2-(2-fluoro-3-methyl-4-(thiazol-4-ylcarbamoyl)phenyl)-9,10-dihydro-4H-benzo[d]pyrazolo[1,5-a][1,3]diazepine-3-carboxamide], the pIC50 in the assay with HEK-293 cells was less than 5.00. The molecule also gave a DC50 on BTK of 3.3 nM.
The like results for `COc1ccccc1C(=O)NCc1ccc(-c2nn3c(c2C(N)=O)Nc2ccc(N4CCN(CC5CCN(c6ccc(N7CCC(=O)NC7=O)cc6)CC5)CC4)cc2CC3)cc1` [Example C1, 7-(4-((1-(4-(2,4-dioxotetrahydropyrimidin-1(2H)-yl)phenyl)piperidin-4-yl)methyl)piperazin-1-yl)-2-(4-((2-methoxybenzamido)methyl)phenyl)-9,10-dihydro-4H-benzo[d]pyrazolo[1,5-a][1,3]diazepine-3-carboxamide] were, in that order, less than 5.00 and 0.758 nM.
Consider `COc1ccc(C)cc1C(=O)NCc1ccc(-c2nn3c(c2C(N)=O)Nc2ccc(N4CCN(CC5CCN(c6ccc(N7CCC(=O)NC7=O)cc6)CC5)CC4)cc2CC3)cc1` [Example C2, 7-(4-((1-(4-(2,4-dioxotetrahydropyrimidin-1(2H)-yl)phenyl)piperidin-4-yl)methyl)piperazin-1-yl)-2-(4-((2-methoxy-5-methylbenzamido)methyl)phenyl)-9,10-dihydro-4H-benzo[d]pyrazolo[1,5-a][1,3]diazepine-3-carboxamide], for which, in the assay with HEK-293 cells, the pIC50 is less than 5.00. The same molecule gave a DC50 at BTK of 0.52 nM.
Taken in the same sequence, the figures for `COc1ccc(F)cc1C(=O)NCc1ccc(-c2nn3c(c2C(N)=O)Nc2ccc(N4CCN(CC5CCN(c6ccc(N7CCC(=O)NC7=O)cc6)CC5)CC4)cc2CC3)cc1` [Example C3, 7-(4-((1-(4-(2,4-dioxotetrahydropyrimidin-1(2H)-yl)phenyl)piperidin-4-yl)methyl)piperazin-1-yl)-2-(4-((5-fluoro-2-methoxybenzamido)methyl)phenyl)-9,10-dihydro-4H-benzo[d]pyrazolo[1,5-a][1,3]diazepine-3-carboxamide] were less than 5.00 and 0.343 nM.
The like results for `COc1ccc2ccccc2c1C(=O)NCc1ccc(-c2nn3c(c2C(N)=O)Nc2ccc(N4CCN(CC5CCN(c6ccc(N7CCC(=O)NC7=O)cc6)CC5)CC4)cc2CC3)cc1` [Example C4, 7-(4-((1-(4-(2,4-dioxotetrahydropyrimidin-1(2H)-yl)phenyl)piperidin-4-yl)methyl)piperazin-1-yl)-2-(4-((2-methoxy-1-naphthamido)methyl)phenyl)-9,10-dihydro-4H-benzo[d]pyrazolo[1,5-a][1,3]diazepine-3-carboxamide] were, in that order, less than 5.00 and 0.282 nM.
